Patent publication US20100331269A1, “TRITERPENES DERIVATIVES AND USES THEREOF AS ANTITUMOR AGENTS OR ANTI-INFLAMMATORY AGENTS” (priority 2006, published 2010)
Marks after values point to notes of the source that are not given here.

Assays:
[1] = test system: DLD-1 human colorectal adenocarcinoma cells; experiment: Cytotoxicity, resazurin metabolism assay, DLD-1; type: cell-based; settings: 48 h, mean ± SD
How it was run: (§1)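 Cells plated at 5×10^3/well, adhered 16 h, then exposed to increasing compound concentrations (DMSO) for 48 h. Viability by resazurin reduction, fluorescence ex 530/em 590 nm, blank-subtracted versus control wells; IC50 as mean±SD from three experiments in triplicate.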

[2] = test system: B16-F1 mouse melanoma cells; experiment: Cytotoxicity, resazurin metabolism assay, B16-F1; type: cell-based; settings: 48 h, mean ± SD
How it was run: as §1

[3] = test system: WS-1 human normal skin fibroblasts; experiment: Cytotoxicity, resazurin metabolism assay, WS-1; type: cell-based; settings: 48 h, mean ± SD
How it was run: as §1

[4] = test system: A-549 cells; experiment: Cytotoxicity, Hoechst DNA assay, A-549; type: cell-based, human; settings: ± SD
How it was run: (§2)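 Cells grown at 37 °C, 5% CO2, in MEM with 10% FBS. Compound cytotoxicity was measured by Hoechst DNA staining. Activity is expressed as IC50, the concentration inhibiting 50% of cell growth.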

[5] = test system: DLD-1 cells; experiment: Cytotoxicity, Hoechst DNA assay, DLD-1; type: cell-based, human; settings: ± SD
How it was run: as §2

[6] = test system: B16-F1 cells; experiment: Cytotoxicity, Hoechst DNA assay, B16-F1; type: cell-based, mouse; settings: ± SD
How it was run: as §2

[7] = test system: MCF-7 human breast adenocarcinoma cells; experiment: Cytotoxicity, resazurin metabolism assay, MCF-7; type: cell-based; settings: mean ± SD
Source text: (§3) Human lung carcinoma (A-549), human colon adenocarcinoma (DLD-1), human normal fibroblasts (WS1), mice melanoma (B16-F1), Human glioma (U-251), Human hepatocellular carcinoma (HEP G2), Human prostate adenocarcinoma (PC-3), Human ovary teratocarcinoma metastatic (PA-1), Human breast adenocarcinona metastatic (MDA-MB-231), Human breast adenocarcinoma (MCF-7) and Human malignant melanoma (SK-MEL-2) cell lines were obtained from the American Type Culture Collection (ATCC). All cell lines were cultured in minimum essential medium containing Earle's salts and L-glutamine (Mediatech Cellgro, Va.), to which was added 10% fetal bovine serum (Hyclone), vitamins (1×), penicillin (100 I.U./mL) and streptomycin (100 μg/mL), essential amino acids (1×) and sodium pyruvate (1×) (Mediatech Cellgro, Va.). Cells were kept at 37° C. in a humidified environment containing 5% CO2.
(§4) Exponentially growing cells were plated in 96-well microplates (Costar, Corning Inc.) at a density of 5×10^3 cells per well in 100 μL of culture medium and were allowed to adhere for 16 hours before treatment. Increasing concentrations of each compound in DMSO (Sigma-Aldrich) were then added (100 μL per well) and the cells were incubated for 48 h. […] Cytotoxicity was assessed using resazurin (O'Brien, J. et al., Eur. J. Biochem. 2000, 267, 5421-5426) on an automated 96-well Fluoroskan Ascent F1™ plate reader (Labsystems) using excitation and emission wavelengths of 530 nm and 590 nm, respectively. Fluorescence was proportional to the cellular metabolic activity in each well. Survival percentage was defined as the fluorescence in experimental wells compared to that in control wells after subtraction of blank values. Each experiment was carried out three times in triplicata. IC50 results were expressed as mean±standard deviation.
(§5) Compounds presented in Table 5 below were also tested in the following tumour cell lines: U-251 (Human glioma), HEP G2 (Human hepatocellular carcinoma), PC-3 (Human prostate adenocarcinoma), PA-1 (Human ovary teratocarcinoma metastatic), MDA-MB-231 (Human breast adenocarcinona metastatic), MCF-7 (Human breast adenocarcinoma) and SK-MEL-2 (Human malignant melanoma).

[8] = test system: SK-Mel-2 human melanoma cells; experiment: Cytotoxicity, resazurin metabolism assay, SK-Mel-2; type: cell-based; settings: mean ± SD
Source text: as §3, §4, §5

[9] = test system: PA-1 human ovary teratocarcinoma cells; experiment: Cytotoxicity, resazurin metabolism assay, PA-1; type: cell-based; settings: mean ± SD
Source text: as §3, §4, §5

[10] = test system: PC-3 human prostate adenocarcinoma cells; experiment: Cytotoxicity, resazurin metabolism assay, PC-3; type: cell-based; settings: mean ± SD
Source text: as §3, §4, §5

[11] = test system: Lewis lung carcinoma; experiment: In vivo antitumoral activity against Lewis lung cancer-bearing mice; set-up: species or system C57BL/6 mouse; settings: day 13
Description: Cell lines and mice preparation: The Lewis lung carcinoma cell lines (#CRL-1642, lot # 4372266, ATCC) and the C57BL/6 mouse strain (Charles River Inc., St-Constant, Qc) were used. Cells were grown to 90% confluence in complete DMEM medium containing Earle's salts and L-glutamine (Mediatech Cellgro, Va.), 10% foetal bovine serum (Hyclone), vitamins (1×), penicillin (100 I.U./mL) and streptomycin (100 μg/mL), essential amino acids (1×) and sodium pyruvate (1×) (Mediatech Cellgro, Va.). Cells were then harvested with up and down only. Cells were counted using a hemacytometer and resuspended in DMEM medium without SVF. 100 μL of a solution containing 1×10^7 cells/mL was inoculated subcutaneously in the right flank of each 6 weeks old mouse on day zero.
The experimental mice were weighed daily.
Data analysis: In vivo antitumor activity was evaluated according to the parameters as follows (Miot-Noirault, E. et al. Invest. New Drugs 2004, 22, 369-378):
(a) Calculated tumour weight (CTW): The CTW of each tumour was estimated from two-dimensional measurements performed once a day with a slide calliper, according to the formula: CTW (mg)=(L×W^2)/2 with L=length in mm and W=width in mm. Differences in CTW between treated and control groups (DMSO) were analyzed for significance using the U Wilcoxon-Mann-Whitney test and Student t-test. Values of p<0.05 were considered statistically significant.
(b) Treated/Control value (T/C) and Tumour Growth Inhibition (TGI):The T/C was calculated as the ratio of the mean CTW of TW of drug-treated mice versus controls: T/C=(CTW of the drug-treated group on Day X/CTW of the control group on Day X)×100. TGI is 100−(T/C) value.

[12] = Toxicity of treatment by body weight of tumour-bearing mice; settings: Lewis lung cancer-bearing mice, IP treatment, day 13
Source text: Individual dose were based on the body weight of each mouse.

For `C=C(C)[C@@H]1CC[C@]2(C(=O)O)CC[C@]3(C)[C@H](CC[C@@H]4[C@@]5(C)CC[C@H](O[C@@H]6O[C@@H](C)[C@H](O)[C@@H](O)[C@H]6O)C(C)(C)[C@@H]5CC[C@]43C)[C@@H]12` [Compound 22, 3-O-α-L-Rhamnopyranoside of betulinic acid], the IC50 [1] was 3.9 ± 0.4 µM, the IC50 [2] was 3.9 ± 0.4 µM and the IC50 [3] was 31 ± 3 µM. The IC50 [4] was 2600 ± 300 nM, the IC50 [5] was 3.4 ± 0.5 µM and the IC50 [6] was 4.2 ± 0.5 µM. It also gave an IC50 [7] of 16 ± 2 µM, an IC50 [8] of 20 ± 7 µM and an IC50 [9] of 8 ± 1 µM. The IC50 [10] was 20 ± 6 µM, the “CTW (calculated tumour weight)” value ([11]; 50 mg/kg IP every 3-4 days) was 297 ± 98 mg and the “T/C (Treated/Control)” value ([11]; 50 mg/kg IP) was 91%. The “TGI (Tumour Growth Inhibition)” value ([11]; 50 mg/kg IP) was 9%, the “CTW (calculated tumour weight)” value ([11]; 100 mg/kg IP every 3-4 days) was 178 ± 53^e mg and the “T/C (Treated/Control)” value ([11]; 100 mg/kg IP) was 55%. The “TGI (Tumour Growth Inhibition)” value ([11]; 100 mg/kg IP) was 45%, the “CTW (calculated tumour weight)” value ([11]; 200 mg/kg IP every 3-4 days) was 192 ± 50^e mg and the “T/C (Treated/Control)” value ([11]; 200 mg/kg IP) was 59%. For the same compound, the “TGI (Tumour Growth Inhibition)” value ([11]; 200 mg/kg IP) was 41% and the “Toxicity / body weight loss compared with controls” value [12] was “did not show any sign of toxicity or body weight loss”.
